Source: publication PMC7767178 (International Journal of Molecular Sciences, 2020)
Like-named read-outs stand apart in the source and are kept apart here. Positions of bridges follow the written chain, without caps; N, C: chain ends. Residues, ends and D or L forms follow the SMILES beside them.

Columns and labels:
trypsin = settings: pH 8
S. hyicus NCTC10350 = system: S. hyicus NCTC10350
Experimental: (§1) Briefly, the tested strains including Gram-negative bacteria, Gram-positive bacteria, and fungi were cultured to the logarithmic growth phase, diluted to 10^5 CFU/mL, and added into 96-well plates (90 μL/well). Two-fold serial dilutions of peptides or antibiotics dissolved in PBS were added to each well (10 μL/well). […] All experiments were repeated three times.

S. aureus ATCC25923 = system: S. aureus ATCC25923
Experimental: as §1

[1] = system: Aeromonas veronii ACCC61732
Experimental: as §1

S. aureus ATCC546 = system: S. aureus ATCC546
Experimental: as §1

A. veronii CL0901 = system: A. veronii CL0901
Experimental: as §1

[2] = system: Pseudomonas aeruginosa CICC21630
Experimental: as §1

A. veronii ACCC61732 [3] = experiment: microbe, parasite or virus in culture; type: cell-based
From the text: The checkerboard microtiter assay was used to determine the combinations of peptides with different antibiotics (including quinolone, rifamycin, peptide antibiotics, aminoglycoside, tetracycline, and chloramphenicol). […] The fractional inhibitory concentration (FIC) was used to calculate the combination effects using the following formula: FIC index (FICI) = MIC(peptide in combination)/MIC(peptide alone) + MIC(antibiotic in combination)/MIC(antibiotic alone). FICI ≤ 0.5 means synergistic, 0.5 < FICI ≤ 1 means additive action, 1 < FICI ≤ 4 means indifference, and FICI > 4 means antagonism.

[4] = system: A. veronii ACCC61732 genomic DNA; experiment: CD spectra of genomic DNA with peptides; type: binding; settings: mass ratios 2.5 and 10.0, 10 min, room temperature
Experimental: CD spectra were performed to examine the secondary structure of genomic DNA from A. veronii ACCC61732 after incubation with peptides. […] The mixtures were loaded into a cuvette of 1.0-mm path length and scanned from 190 to 330 nm at 25 °C using a Pistar π-180 CD spectrometer (Applied Photophysics Ltd., Surry, UK).

in vitro = settings: mouse, 25% mouse serum
[5] = system: Salmonella typhimurium ATCC14028; type: cell-based
A. veronii ACCC61732 [6] = experiment: ATP release, BacTiter-Glo; type: cell-based; settings: 8×, 16× and 32× MIC, 60 min, 37 °C, luminescence, n = 3
Experimental: The assay was performed for three biological replicates at 37 °C, with luminescence recorded using a Tecan Infinite M1000 Pro plate reader. The fold reduction of ATP was calculated as: Fold reduction ATP = 1 − (Ltreat − Lmedia/Lcontrol − Lmedia), where Ltreat is the luminescence of treated cells, Lmedia is the luminescence of MHB without cells, and Lcontrol is the luminescence of untreated cells. Resultant graphs show mean (n = 3) and SEM for each data point, prepared in Prism 7 [46].

A. veronii ACCC61732 [7] = experiment: Mouse peritonitis model, bacterial translocation to organs; type: in vivo, ICR mice; settings: 24 h post-treatment, colony counting
Experimental: Sera and organs (livers, kidneys, spleens, and lungs) were collected from the mice at 24 h post-treatment. The organs were homogenized in sterile PBS to evaluate bacterial translocation by colony counting. The levels of cytokines (TNF-α, IL-1β, IL-6, and IL-10) in sera were detected using the ELISA kits.

[8] = system: A. veronii ACCC61732 mature biofilms; experiment: Eradication of mature biofilms, crystal violet; type: cell-based; settings: 16× MIC, 24 h on 24 h biofilm
Experimental: A. veronii ACCC61732 cells (1 × 10^8 CFU/mL) were cultured in TSB medium in the 96-well plates at 37 °C for 24 h.

MDR A. veronii ACCC61732 = experiment: Mouse peritonitis model, survival; type: in vivo, ICR mice; settings: seven days, six mice
Experimental: […]. The mice injected with only bacteria or saline served as the negative and blank control. The mouse survival was recorded daily for seven days.

A. veronii = experiment: MIC, range over strains; type: cell-based; settings: range over the strains of Table 2
From the text: (§2) All experiments were repeated three times.

Escherichia coli = experiment: MIC, range over strains; type: cell-based; settings: range over the strains of Table 2
From the text: as §2

mouse erythrocytes = experiment: Hemolysis; type: cell-based; settings: 256 μg/mL; 8% mouse erythrocyte suspension, 37 °C, 1 h, absorbance 540 nm
Experimental: To determine the hemolysis of peptides, eyeball blood was collected from 6-week-old SPF ICR mice. The blood was centrifuged at 4 °C for 10 min (1500 rpm), washed three times with 0.9% physiological saline, and diluted to 8% suspension. […] Red blood cell suspensions and peptide solutions (100 μL) were mixed in 96-well plates, centrifuged at 4 °C for 5 min (1500 rpm), and incubated at 37 °C for 1 h. The supernatant was added into a 96-well plate and the UV absorbance was measured at 540 nm using a microplate reader. Physiological saline and 0.1% Triton X-100 were used as 0% and 100% hemolytic controls, respectively. The hemolytic ratio was calculated as follows: Hemolysis (%) = [(Abspeptide − Abssaline)/(Abs0.1%Triton X-100 − Abssaline)] × 100% [38].

[9] = S. hyicus NCTC10350, broth dilution, 37 °C, 16–18 h, three experiments
[10] = S. aureus ATCC25923, broth dilution, 37 °C, 16–18 h, three experiments
[11] = Aeromonas veronii ACCC61732 (MDR), broth dilution, 37 °C, 16–18 h, three experiments
[12] = S. aureus ATCC546, broth dilution, 37 °C, 16–18 h, three experiments
[13] = A. veronii CL0901, broth dilution, 37 °C, 16–18 h, three experiments
[14] = Salmonella typhimurium ATCC14028, broth dilution, 37 °C, 16–18 h, three experiments
[15] = Pseudomonas aeruginosa CICC21630, broth dilution, 37 °C, 16–18 h, three experiments

CC(C)[C@@H]1NC(=O)CNC(=O)[C@H](CC(N)=O)NC(=O)[C@H](CCCNC(=N)N)NC(=O)[C@H](Cc2ccc(O)cc2)NC(=O)[C@H](C(C)C)NC(=O)[C@@H](NC(=O)[C@@H](NC(=O)[C@H](CC(N)=O)NC(=O)[C@H](Cc2c[nH]c3ccccc23)NC(=O)[C@H](C)NC(=O)[C@H](Cc2ccccc2)NC(=O)[C@H](CCCN)N=C(N(C)C)N(C)C)C(C)C)CSSC[C@@H](C(=O)N[C@@H](Cc2c[nH]cn2)C(=O)N[C@@H](CCCNC(=N)N)C(=O)N[C@@H](CCCNC(=N)N)C(=O)N[C@@H](C)C(=O)N[C@@H](CC(N)=O)C(N)=O)NC(=O)[C@H](C(C)C)NC(=O)[C@H](CCCNC(=N)N)NC1=O (stereo in doubt) [Guo-N6NH2]
MIC after trypsin treatment (trypsin): lost their activity | MIC (S. hyicus NCTC10350; NCTC10350): 24.32 µM | MIC (S. hyicus NCTC10350; [9]): 64 µg/mL | MIC (S. aureus ATCC25923; ATCC25923): 12.16 µM | MIC (S. aureus ATCC25923; [10]): 32 µg/mL | MIC [1]: 3.04 µM | MIC [1, 11]: 8 µg/mL | MIC, control ([1]; Table S6 control: absence of temperature, acid and alkali, salt and enzyme condition): 8 µg/mL | MIC (S. aureus ATCC546; ATCC546): 6.08 µM | MIC (S. aureus ATCC546; [12]): 16 µg/mL | MIC (A. veronii CL0901): 6.08 µM | MIC (A. veronii CL0901; [13]): 16 µg/mL | MIC ([2]; CICC21630): >24.3 µM | MICa, MIC of the peptide used alone (A. veronii ACCC61732 [3]): 8 µg/mL | interaction with polymyxin B (PMB) (A. veronii ACCC61732 [3]; checkerboard, by FICI): synergic effect | effect on CD spectrum of genomic DNA [4]: do not affect the double helix of genomic DNA | remaining at 2 h (in vitro): 84% | remaining at 4.5 h (in vitro): 56.8% | remaining at 6 h (in vitro): 44.2% | MIC [5, 14]: 4 µg/mL | ATP release (A. veronii ACCC61732 [6]): 66.23–92.09%

CC(C)[C@@H]1NC(=O)CNC(=O)[C@H](CC(N)=O)NC(=O)[C@H](CCCNC(=N)N)NC(=O)[C@H](Cc2ccc(O)cc2)NC(=O)[C@H](C(C)C)NC(=O)[C@@H](NC(=O)[C@@H](NC(=O)[C@H](CC(N)=O)NC(=O)[C@H](Cc2c[nH]c3ccccc23)NC(=O)[C@H](C)NC(=O)[C@H](Cc2ccccc2)NC(=O)CN)C(C)C)CSSC[C@@H](C(=O)N[C@@H](Cc2cnc[nH]2)C(=O)N[C@@H](CCCNC(=N)N)C(=O)N[C@@H](CCCNC(=N)N)C(=O)N[C@@H](C)C(=O)N[C@@H](CC(N)=O)C(N)=O)NC(=O)[C@H](C(C)C)NC(=O)[C@H](CCCNC(=N)N)NC1=O [N6NH2]
MIC (S. hyicus NCTC10350; NCTC10350): 12.9 µM | MIC (S. hyicus NCTC10350; [9]): 32 µg/mL | MIC (S. aureus ATCC25923; ATCC25923): 12.9 µM | MIC (S. aureus ATCC25923; [10]): 32 µg/mL | MIC [1, 11]: 4 µg/mL | MIC (S. aureus ATCC546; ATCC546): 6.46 µM | MIC (S. aureus ATCC546; [12]): 16 µg/mL | MIC (A. veronii CL0901): 6.46 µM | MIC (A. veronii CL0901; [13]): 16 µg/mL | MIC ([2]; CICC21630): 25.8 µM | MIC [2, 15]: 64 µg/mL | interaction with polymyxin B (PMB) (A. veronii ACCC61732 [3]; checkerboard, by FICI): synergic effect | interaction with rifampicin, streptomycin sulfate, doxycycline hyclate, and kanamycin sulfate (A. veronii ACCC61732 [3]; checkerboard, by FICI): additive effects | effect on CD spectrum of genomic DNA [4]: do not affect the double helix of genomic DNA | remaining at 2 h (in vitro): 85.9% | remaining at 4.5 h (in vitro): 58% | remaining at 6 h (in vitro): 41.9% | MIC [5, 14]: 4 µg/mL | reduction of bacteria in kidneys (A. veronii ACCC61732 [7]; 5 μmol/kg): 80.52% | reduction of bacteria in livers (A. veronii ACCC61732 [7]; 5 μmol/kg): 72.94% | reduction of bacteria in lungs (A. veronii ACCC61732 [7]; 5 μmol/kg): 71.89% | reduction of bacteria in spleens (A. veronii ACCC61732 [7]; 5 μmol/kg): 77.86% | ATP release (A. veronii ACCC61732 [6]): 56.07–90.00%

O=C(O)c1cn(C2CC2)c2cc(N3CCNCC3)c(F)cc2c1=O [CIP, ciprofloxacin, reference compound]
MIC (A. veronii ACCC61732 [3]; Aeromonas veronii, ACCC61732, read-out: MICa, MIC of the antibiotic used alone): 0.125 µg/mL | inhibition of mature biofilms [8]: 89.87% | survival rate of mice (MDR A. veronii ACCC61732; 1 μmol/kg i.p. 0.5 h after infection): 83.33% | reduction of bacteria in kidneys (A. veronii ACCC61732 [7]; 1 μmol/kg): 60.14% | reduction of bacteria in livers (A. veronii ACCC61732 [7]; 1 μmol/kg): 54.55% | reduction of bacteria in lung (A. veronii ACCC61732 [7]; 1 μmol/kg): 62.27% | reduction of bacteria in spleens (A. veronii ACCC61732 [7]; 1 μmol/kg): 53.62% | ATP release (A. veronii ACCC61732 [6]): 7.06–47.60%

CC(C)[C@H](N)C(=O)N[C@@H](Cc1ccccc1)C(=O)N[C@@H](C)C(=O)N[C@@H](Cc1c[nH]c2ccccc12)C(=O)N[C@@H](CC(N)=O)C(=O)N[C@H](C(=O)N[C@H]1CSSC[C@@H](C(=O)N[C@@H](Cc2c[nH]cn2)C(=O)N[C@@H](CCCNC(=N)N)C(=O)N[C@@H](CCCNC(=N)N)C(=O)N[C@@H](C)C(=O)N[C@@H](CC(N)=O)C(N)=O)NC(=O)[C@H](C(C)C)NC(=O)[C@H](CCCNC(=N)N)NC(=O)[C@H](C(C)C)NC(=O)[C@H](C(C)C)NC(=O)[C@H](CC(N)=O)NC(=O)[C@H](CCCNC(=N)N)NC(=O)[C@H](Cc2ccc(O)cc2)NC(=O)[C@H](C(C)C)NC1=O)C(C)C [V112N6NH2] (H-VFAWNVCVYRNVVRVCHRRAN-NH2; disulfide 7-16 (inferred))
MIC after trypsin treatment (trypsin): lost their activity | MIC (S. hyicus NCTC10350; NCTC10350): 25.01 µM | MIC (S. hyicus NCTC10350; [9]): 64 µg/mL | MIC (S. aureus ATCC25923; ATCC25923): 12.5 µM | MIC (S. aureus ATCC25923; [10]): 32 µg/mL | MIC [1]: 6.25 µM | MIC [1, 11]: 16 µg/mL | MIC (S. aureus ATCC546; ATCC546): 6.25 µM | MIC (S. aureus ATCC546; [12]): 16 µg/mL | MIC (A. veronii CL0901): 12.51 µM | MIC (A. veronii CL0901; [13]): 32 µg/mL | MIC ([2]; CICC21630): 12.5 µM | MIC [2, 15]: 32 µg/mL | MIC values against A. veronii (A. veronii): 6.25 to 12.51 µM | MIC values against Escherichia coli (Escherichia coli): 1.56 to 3.13 µM | hemolysis (mouse erythrocytes): 4.59% | effect on CD spectrum of genomic DNA [4]: do not affect the double helix of genomic DNA | remaining at 2 h (in vitro): 81.4% | remaining at 4.5 h (in vitro): 32.1% | remaining at 6 h (in vitro): 19.1% | MIC ([5]; ATCC14028): 6.25 µM | MIC [5, 14]: 16 µg/mL | survival rate of mice (MDR A. veronii ACCC61732; 5 μmol/kg i.p. 0.5 h after infection): 66.67% | reduction of bacteria in kidneys (A. veronii ACCC61732 [7]; 5 μmol/kg): 63.42% | reduction of bacteria in livers (A. veronii ACCC61732 [7]; 5 μmol/kg): 52.71% | reduction of bacteria in lungs (A. veronii ACCC61732 [7]; 5 μmol/kg): 83.57% | reduction of bacteria in spleens (A. veronii ACCC61732 [7]; 5 μmol/kg): 63.87%
